Measurements taken from patent US20260042769A1, “TRIARYL AGONISTS OF ALPHA-2 ADRENERGIC RECEPTORS” (ALCEPTOR THERAPEUTICS, INC., priority 2023, published 2026).

Target: T1, human ADRA2B receptor (Homo sapiens, UniProt P18089)
T1 construct: expressed in transfected cells
T1 sequence (P18089 1-450): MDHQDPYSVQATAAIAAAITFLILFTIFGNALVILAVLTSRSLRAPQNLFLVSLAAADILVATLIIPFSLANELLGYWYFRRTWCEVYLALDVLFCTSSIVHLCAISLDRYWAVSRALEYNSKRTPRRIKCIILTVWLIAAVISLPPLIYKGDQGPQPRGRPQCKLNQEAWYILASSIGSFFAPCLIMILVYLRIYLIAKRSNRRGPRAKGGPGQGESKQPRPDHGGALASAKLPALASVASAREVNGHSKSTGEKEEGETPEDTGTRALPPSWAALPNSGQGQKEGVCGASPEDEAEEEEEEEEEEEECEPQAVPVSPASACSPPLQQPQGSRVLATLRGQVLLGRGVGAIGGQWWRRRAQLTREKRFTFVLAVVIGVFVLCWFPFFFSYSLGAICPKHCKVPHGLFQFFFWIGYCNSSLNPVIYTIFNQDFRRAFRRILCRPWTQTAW
Assay: ADRA2B arrestin agonist assay
Assay type: cell-based
Details: CHO-K1 cells stably expressing human ADRA2B; read-out: Beta-Arrestin - Human Alpha2B EC50
Method: ADRA2A and ADRA2B Arrestin Agonist Assay Method
The arrestin assay uses frozen CHO-K1 cell lines stably expressing human ADRA2A and ADRA2B receptors. Cells are frozen following normal cell freezing protocols. Briefly, cells are washed with PBS and then dissociated with 0.25% trypsin. Dissociated cells are quenched in full media and then collected by centrifugation at 290×g for 5 minutes. […] Cells are stored at −80° C. (or in liquid N2 if stored >6 months) until the day of the assay.
On the day before the assay, frozen cells are thawed in a 37° C. water bath, brought up in 20 mL of full media, and collected via centrifugation at 290×g for 5 minutes. […] Cells are incubated overnight in a 37° C., 5% CO2 cell incubator.
On the day of the assay, agonists are diluted in Opti-MEM to 3.5x of the final assay concentration. 4 μL of agonists are added to the cells and incubated for 2 hours at 37° C. in a 5% CO2 cell incubator. 6 μL of arrestin detection reagents are dispensed onto the cells and the plates are incubated for 2 hours at room temperature. […] Plates are read on an Envision luminescence plate reader.

Cc1cccc([C@H](Cc2cn(C)nn2)c2c[nH]cn2)c1F [Compound 250, 4-[(S)-2-(2-fluoro-3-tolyl)-2-(4-imidazolyl)ethyl]-1-methyl-1H-1,2,3-triazole]
EC50: > 500 nM

Fc1c(Cl)cccc1C(Cc1cc[nH]n1)c1c[nH]cn1 (stereo not drawn) [Compound 251, 3-[2-(3-chloro-2-fluorophenyl)-2-(4-imidazolyl)ethyl]py-razole]
EC50: 50 to 500 nM

c1ccc(C[C@@H](c2c[nH]cn2)c2cccc3c2OCC3)nc1 [Compound 252, 4-[(R)-1-(2,3-dihydro-1-benzofuran-7-yl)-2-(2-pyridyl)ethyl]imida-]
EC50: 10 to 50 nM

Cn1ccc2cccc(C(Cc3cc[nH]n3)c3c[nH]cn3)c21 (stereo not drawn) [Compound 253, 3-[2-(4-imidazolyl)-2-(1-methyl-7-indolyl)ethyl]pyrazole]
EC50: > 500 nM

Cc1cccc(C(Cc2cccnc2C)c2c[nH]cn2)c1C (stereo not drawn) [Compound 254, 4-[2-(2-methyl-3-pyridyl)-1-(2,3-xylyl)ethyl]imidazole]
EC50: 10 to 50 nM

Cc1cc(CC(c2c[nH]cn2)c2cccc(C)c2C)ccn1 (stereo not drawn) [Compound 255, 4-[2-(2-methyl-4-pyridyl)-1-(2,3-xylyl)ethyl]imidazole]
EC50: < 10 nM

Cc1cccc(C(Cc2cncnc2C)c2c[nH]cn2)c1C (stereo not drawn) [Compound 256, 5-[2-(4-imidazolyl)-2-(2,3-xylyl)ethyl]-4-methylpyrimidine]
EC50: 50 to 500 nM

Cc1cc(CC(c2c[nH]cn2)c2cccc(C)c2C)ncn1 (stereo not drawn) [Compound 257, 4-[2-(4-imidazolyl)-2-(2,3-xylyl)ethyl]-6-methylpyrimidine]
EC50: > 500 nM

Cn1cc(CC(c2c[nH]cn2)c2cccc3c2OCC3)nn1 (stereo not drawn) [Compound 258, 4-[2-(2,3-dihydro-1-benzofuran-7-yl)-2-(4-imidazolyl)ethyl] 1-methyl-1H-1,2,3-triazole]
EC50: 10 to 50 nM

Cc1cccc(CC(c2c[nH]cn2)c2cccc(C)c2F)n1 (stereo not drawn) [Compound 259, 4-[1-(2-fluoro-3-tolyl)-2-(6-methyl-2-pyridyl)ethyl]imida-zole]
EC50: 10 to 50 nM

COc1c(C)cccc1C(Cc1cn(C)nn1)c1c[nH]cn1 (stereo not drawn) [Compound 260, 4-[2-(4-imidazolyl)-2-(2-methoxy-3-tolyl)ethyl]-1-methyl-1H-1,2,3-triazole]
EC50: 50 to 500 nM

Cc1cccc([C@H](Cc2ccn(CF)n2)c2c[nH]cn2)c1C [Compound 261, 3-[(S)-2-(4-imidazolyl)-2-(2,3-xylyl)ethyl]-1-(fluoromethyl)pyra-zole]
EC50: < 10 nM

Cc1cccc([C@H](Cc2ccnn2CF)c2c[nH]cn2)c1C [Compound 262, 5-[(S)-2-(4-imidazolyl)-2-(2,3-xylyl)ethyl]-1-(fluoromethyl)pyra-zole]
EC50: 10 to 50 nM

Cc1nnc(CC(c2c[nH]cn2)c2cccc(C)c2C)s1 (stereo not drawn) [Compound 263, 2-[2-(4-imidazolyl)-2-(2,3-xylyl)ethyl]-5-methyl-1,3,4-thiadiazole]
EC50: 50 to 500 nM

Cc1nsc(CC(c2c[nH]cn2)c2cccc(C)c2C)n1 (stereo not drawn) [Compound 264, 5-[2-(4-imidazolyl)-2-(2,3-xylyl)ethyl]-3-methyl-1,2,4-thiadiazole]
EC50: 50 to 500 nM

Cc1cccc(C[C@@H](c2c[nH]cn2)c2cccc3c2OCC3)n1 [Compound 265, 4-[(R)-1-(2,3-dihydro-1-benzofuran-7-yl)-2-(6-methyl-2-pyridyl)ethyl]imida-zole]
EC50: 10 to 50 nM

Cc1cccc(C[C@H](c2c[nH]cn2)c2cccc3c2OCC3)n1 [Compound 266, 4-[(S)-1-(2,3-dihydro-1-benzofuran-7-yl)-2-(6-methyl-2-pyridyl)ethyl]imida-]
EC50: > 500 nM

Cn1nccc1CC(c1c[nH]cn1)c1cccc2ccn(C)c12 (stereo not drawn) [Compound 267, 5-[2-(4-imidazolyl)-2-(1-methyl-7-indolyl)ethyl]-1-methylpyrazole]
EC50: 50 to 500 nM

Cc1ncncc1CC(c1c[nH]cn1)c1cccc2c1OCC2 (stereo not drawn) [Compound 268, 5-[2-(2,3-dihydro-1-benzofuran-7-yl)-2-(4-imidazolyl)ethyl]-4-methylpyrimidine]
EC50: 50 to 500 nM

Cn1nccc1CC(c1c[nH]cn1)c1cccc2c1cnn2C (stereo not drawn) [Compound 269, 4-[1-(4-imidazolyl)-2-(1-methyl-5-pyrazolyl)ethyl]-1-methyl-1H-indazole]
EC50: 50 to 500 nM

CNc1ccc(CC(c2c[nH]cn2)c2cccc(C)c2C)cn1 (stereo not drawn) [Compound 270, N-methyl{5-[2-(4-imidazolyl)-2-(2,3-xylyl)ethyl]-2-pyridyl}amine]
EC50: < 10 nM

COc1ccc(CC(c2c[nH]cn2)c2cccc(C)c2C)cn1 (stereo not drawn) [Compound 273, 4-[2-(6-methoxy-3-pyridyl)-1-(2,3-xylyl)ethyl]imidazole]
EC50: < 10 nM

COc1cc(CC(c2c[nH]cn2)c2cccc(C)c2C)ccn1 (stereo not drawn) [Compound 274, 4-[2-(2-methoxy-4-pyridyl)-1-(2,3-xylyl)ethyl]imidazole]
EC50: < 10 nM

COc1ncncc1CC(c1c[nH]cn1)c1cccc(C)c1C (stereo not drawn) [Compound 275, 5-[2-(4-imidazolyl)-2-(2,3-xylyl)ethyl]-4-methoxypyrimidine]
EC50: 10 to 50 nM

COc1c(C)cccc1C(Cc1cc(C)ncn1)c1c[nH]cn1 (stereo not drawn) [Compound 276, 4-[2-(4-imidazolyl)-2-(2-methoxy-3-tolyl)ethyl]-6-methylpyrimidine]
EC50: 50 to 500 nM

COCn1ccc(C[C@H](c2c[nH]cn2)c2cccc(C)c2C)n1 [Compound 278, 3-[(S)-2-(4-imidazolyl)-2-(2,3-xylyl)ethyl]-1-(methoxymethyl)pyrazole]
EC50: < 10 nM

Cc1cccc([C@H](Cc2ccn(C(F)F)n2)c2c[nH]cn2)c1C [Compound 280, 3-[(S)-2-(4-imidazolyl)-2-(2,3-xylyl)ethyl]-1-(difluoromethyl)pyrazole]
EC50: < 10 nM

Cc1cccc([C@H](Cc2ccnn2C(F)F)c2c[nH]cn2)c1C [Compound 281, 5-[(S)-2-(4-imidazolyl)-2-(2,3-xylyl)ethyl]-1-(difluoromethyl)pyrazole]
EC50: < 10 nM

Cc1cccc([C@@H](Cc2ccn(C(F)F)n2)c2c[nH]cn2)c1C [Compound 282, 3-[(R)-2-(4-imidazolyl)-2-(2,3-xylyl)ethyl]-1-(difluoromethyl)pyrazole]
EC50: > 500 nM

Cc1cccc(C(Cc2cnc3[nH]ccc3c2)c2c[nH]cn2)c1C (stereo not drawn) [Compound 283, 4-[2-(1H-1,7-diazainden-5-yl)-1-(2,3-xylyl)ethyl]imidazole]
EC50: < 10 nM

Cc1cccc(CC(c2c[nH]cn2)c2cccc3ccn(C)c23)n1 (stereo not drawn) [Compound 284, 4-[1-(1-methyl-7-indolyl)-2-(6-methyl-2-pyridyl)ethyl]imidazole]
EC50: 10 to 50 nM

Cc1cccc(C(Cc2cnc3cnccn23)c2c[nH]cn2)c1C (stereo not drawn) [Compound 285, 3-[2-(4-imidazolyl)-2-(2,3-xylyl)ethyl]-1,3a,6-triazaindene]
EC50: 10 to 50 nM

Cc1cccc(C(Cc2ncnc3[nH]ccc23)c2c[nH]cn2)c1C (stereo not drawn) [Compound 286, 4-[2-(4-imidazolyl)-2-(2,3-xylyl)ethyl]-1H-1,5,7-triazaindene]
EC50: < 10 nM

Cc1cccc(C(Cc2cnc3n[nH]cc3c2)c2c[nH]cn2)c1C (stereo not drawn) [Compound 287, 5-[2-(4-imidazolyl)-2-(2,3-xylyl)ethyl]-2H-1,2,7-triazaindene-formic acid (1/1)]
EC50: < 10 nM

Cc1cccc(C(Cc2ccc(C(N)=O)nc2)c2c[nH]cn2)c1C (stereo not drawn) [Compound 288, 5-[2-(4-imidazolyl)-2-(2,3-xylyl)ethyl]-2-pyridinecarboxamide]
EC50: < 10 nM

Cc1cccc(C(Cc2ccnc(C(C)C)n2)c2c[nH]cn2)c1C (stereo not drawn) [Compound 291, 4-[2-(4-imidazolyl)-2-(2,3-xylyl)ethyl]-2-isopropylpyrimidine]
EC50: < 10 nM

Cc1cccc(C(Cc2ccc(N(C)C)nc2)c2c[nH]cn2)c1C (stereo not drawn) [Compound 292, N,N-dimethyl{5-[2-(4-imidazolyl)-2-(2,3-xylyl)ethyl]-2-pyridyl}amine]
EC50: < 10 nM

CCOc1ccc(CC(c2c[nH]cn2)c2cccc(C)c2C)cn1 (stereo not drawn) [Compound 293, 4-[2-(6-ethoxy-3-pyridyl)-1-(2,3-xylyl)ethyl]imidazole]
EC50: 10 to 50 nM

COCc1cccc(CC(c2c[nH]cn2)c2cccc(C)c2C)n1 (stereo not drawn) [Compound 294, 4-{2-[6-(methoxymethyl)-2-pyridyl]-1-(2,3-xylyl)ethyl}imidazole]
EC50: < 10 nM

COCc1cc(CC(c2c[nH]cn2)c2cccc(C)c2C)ccn1 (stereo not drawn) [Compound 295, 4-{2-[2-(methoxymethyl)-4-pyridyl]-1-(2,3-xylyl)ethyl}imidazole]
EC50: < 10 nM

Cc1cccc([C@H](Cc2ccn(C3COC3)n2)c2c[nH]cn2)c1C [Compound 296, 3-[(S)-2-(4-imidazolyl)-2-(2,3-xylyl)ethyl]-1-(3-oxetanyl)pyrazole]
EC50: 10 to 50 nM

CC(C)n1cc(C[C@@H](c2c[nH]cn2)c2cccc3c2OCC3)cn1 [Compound 297, 4-[(R)-2-(2,3-dihydro-1-benzofuran-7-yl)-2-(4-imidazolyl)ethyl] 1-isopropylpyrazole]
EC50: > 500 nM
